Source: the supplement of paper PMC10307832

Assays:
Experiment in all cases: relative viability (nuclei count vs DMSO), 5 days (fraction); higher = more cells survive
[1] = compound: CN(C)C/C=C/C(=O)Nc1cc2c(Nc3ccc(F)c(Cl)c3)ncnc2cc1O[C@H]1CCOC1 [Afatinib] + COc1cc2c(Oc3ccc(NC(=O)C4(C(=O)Nc5ccc(F)cc5)CC4)cc3F)ccnc2cc1OCCCN1CCOCC1 [Foretinib] (partner 0.25 µM)
Outline: (§1)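 Cells from lung cancer lines were seeded into 1536-well plates and, one day later, dosed by pin tool. Treatments were either a single drug or a fixed dose of an anchor drug with five library-drug doses (not always all listed) in √10 steps. After 5 days, nuclei were stained in a one-step fixation (final 0.05% Triton X-100, 1% formaldehyde, 1 ug/ml Hoechst) and counted on 4× images, and relative viability is the treated-to-vehicle nuclei ratio, as the median of duplicate plates.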

[2] = compound: CN(C)C/C=C/C(=O)Nc1cc2c(Nc3ccc(F)c(Cl)c3)ncnc2cc1O[C@H]1CCOC1 [Afatinib] + Cc1nc(NC(=O)N2CCC[C@H]2C(N)=O)sc1-c1ccnc(C(C)(C)C(F)(F)F)c1 [Alpelisib] (partner 2 µM)
Outline: as §1

[3] = compound: CN(C)C/C=C/C(=O)Nc1cc2c(Nc3ccc(F)c(Cl)c3)ncnc2cc1O[C@H]1CCOC1 [Afatinib] + Nc1nc2[nH]cc(CCc3ccc(C(=O)N[C@@H](CCC(=O)O)C(=O)O)cc3)c2c(=O)[nH]1 [Pemetrexed] (partner 0.2 µM)
Outline: as §1

[4] = compound: CN(C)C/C=C/C(=O)Nc1cc2c(Nc3ccc(F)c(Cl)c3)ncnc2cc1O[C@H]1CCOC1 [Afatinib] + O=C(c1cc(Cc2n[nH]c(=O)c3ccccc23)ccc1F)N1CCN(C(=O)C2CC2)CC1 [Olaparib] (partner 8 µM)
Outline: as §1

Row | Cell Line | relative viability ([1]; first compound 0.005 µM) | relative viability ([1]; first compound 0.01581 µM) | relative viability ([1]; first compound 0.05 µM) | relative viability ([1]; first compound 0.1581 µM) | relative viability ([1]; first compound 0.5 µM) | relative viability ([2]; first compound 0.005 µM) | relative viability ([2]; first compound 0.01581 µM) | relative viability ([2]; first compound 0.05 µM) | relative viability ([2]; first compound 0.1581 µM) | relative viability ([2]; first compound 0.5 µM) | relative viability ([3]; first compound 0.005 µM) | relative viability ([3]; first compound 0.01581 µM) | relative viability ([3]; first compound 0.05 µM) | relative viability ([3]; first compound 0.1581 µM) | relative viability ([3]; first compound 0.5 µM) | relative viability ([4]; first compound 0.005 µM) | relative viability ([4]; first compound 0.01581 µM) | relative viability ([4]; first compound 0.05 µM) | relative viability ([4]; first compound 0.1581 µM) | relative viability ([4]; first compound 0.5 µM)
1 | SW 1573 | 0.999 | 0.924 | 0.898 | 0.861 | 0.877 | 0.778 | 0.805 | 0.805 | 0.811 | 0.668 | 0.747 | 0.852 | 0.86 | 0.769 | 0.861 | 0.624 | 0.485 | 0.486 | 0.421 | 0.408
2 | NCI-H1651 | 0.825 | 0.636 | 0.822 | 0.748 | 0.746 | 1.02 | 0.881 | 0.906 | 0.953 | 0.849 | 0.553 | 0.539 | 0.57 | 0.569 | 0.54 | 0.173 | 0.186 | 0.179 | 0.17 | 0.21
3 | NCI-H2023 | 0.811 | 0.892 | 0.42 | 0.333 | 0.562 | 0.608 | 0.544 | 0.446 | 0.408 | 0.434 | 0.222 | 0.209 | 0.231 | 0.189 | 0.208 | 0.514 | 0.444 | 0.489 | 0.464 | 0.481
4 | COR-L 105 | 0.385 | 0.448 | 0.37 | 0.287 | 0.318 | 0.934 | 0.45 | 0.353 | 0.255 | 0.241 | 0.837 | 0.503 | 0.542 | 0.353 | 0.377 | 0.737 | 0.483 | 0.422 | 0.331 | 0.34
5 | NCI-H1734 | 0.926 | 0.785 | 0.83 | 0.73 | 0.924 | 0.675 | 0.747 | 0.735 | 0.697 | 0.671 | 0.411 | 0.374 | 0.406 | 0.375 | 0.453 | 0.666 | 0.569 | 0.621 | 0.58 | 0.551
6 | NCI-H3122 | 0.924 | 0.982 | 0.949 | 0.906 | 0.938 | 0.81 | 0.685 | 0.716 | 0.738 | 0.705 | 0.206 | 0.196 | 0.199 | 0.187 | 0.187 | 0.619 | 0.628 | 0.57 | 0.632 | 0.68
7 | CAL-12T | 1.15 | 1.02 | 1.29 | 0.56 | 0.684 | 1.18 | 0.973 | 0.929 | – | 0.584 | 1.22 | 0.928 | 1.46 | 0.491 | 0.855 | 0.763 | 0.668 | 0.616 | 0.47 | 0.497
8 | HCC-78 | 0.549 | 0.568 | 0.405 | 0.324 | 0.386 | 0.373 | 0.345 | 0.273 | 0.228 | 0.217 | 0.924 | 0.869 | 0.904 | 0.915 | 0.902 | 0.792 | 0.932 | 0.852 | 0.717 | 0.667
9 | NCI-H2085 | 0.888 | 0.773 | 0.791 | 0.59 | 0.628 | 0.944 | 0.873 | 0.812 | 0.659 | 0.803 | 0.821 | 0.671 | 0.842 | 0.681 | 0.699 | 0.751 | 0.691 | 0.659 | 0.603 | 0.648
